For data set [1], the target named is T1, MAO-A enzyme (Homo sapiens, UniProt P21397).
T1 construct: purchased Sigma-Aldrich
T1 sequence (P21397 1-527): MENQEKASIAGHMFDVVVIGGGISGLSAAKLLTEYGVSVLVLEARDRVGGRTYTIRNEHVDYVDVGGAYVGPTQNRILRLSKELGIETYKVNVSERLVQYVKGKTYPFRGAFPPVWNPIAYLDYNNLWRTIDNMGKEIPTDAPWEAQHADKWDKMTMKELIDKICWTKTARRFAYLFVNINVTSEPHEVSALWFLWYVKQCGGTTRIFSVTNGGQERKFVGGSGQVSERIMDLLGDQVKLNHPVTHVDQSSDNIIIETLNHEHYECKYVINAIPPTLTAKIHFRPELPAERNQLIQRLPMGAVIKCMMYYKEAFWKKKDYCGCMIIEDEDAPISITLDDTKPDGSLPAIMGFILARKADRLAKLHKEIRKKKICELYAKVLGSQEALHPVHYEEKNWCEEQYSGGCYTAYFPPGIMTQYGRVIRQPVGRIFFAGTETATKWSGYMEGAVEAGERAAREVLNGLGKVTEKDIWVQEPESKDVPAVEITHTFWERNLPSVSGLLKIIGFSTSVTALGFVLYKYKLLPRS
The experiment in a line: Enzyme kinetic studies (Lineweaver-Burk plots) on MAO-A. The format is biochemical. On the procedure:
The same materials were used for the MAO-inhibition assay. Compound 2j was prepared at the IC50 concentration calculated in the enzyme assay and then added to the wells (100 μL/well). The stock solution (25 mM) of kynuramine in 0.1 M phosphate buffer was diluted to final concentrations of 40, 20, 10, 5, 2.5 and 1.25 μM and then added to the wells (50 μL/well) that contained the test compound. The MAO-A enzyme was added to the plate (50 μL/well), incubated for 20 min at 37 °C, and the plate was read at excitation/emission wavelengths of 310 and 340 nm. The control measurement without the inhibitor was determined simultaneously. The results were analyzed by using Lineweaver-Burk plots in Microsoft Office Excel 2013 (Microsoft Inc., Redmond, WA, USA).
1/V: 1/rate of reaction [1/(nmoles/min/mg protein)], 1/S: 1/substrate concentration (1/µM).

The nature of data set [2]: Cytotoxicity test (MTT assay). Conditions: mouse, NIH/3T3 mouse embryonic fibroblast cells (ATCC CRL-1658). In general terms: Tetrazolium assays rely on reduction of a dye to a coloured formazan, in cell work by metabolically active cells.
Experimental: (§2) The MTT assay was performed as previously described [21, 22, 23, 24, 25, 26].
Data set [3] deals with T1, MAO-A enzyme. The data set can be described thus: MAO activity assay (fluorometric, kynuramine substrate), MAO-A. The format is biochemical. On the procedure:
The enzyme activity assay was performed in accordance with the procedure reported by Matsumoto et al. with slight modifications. All materials used in the enzymatic assays were purchased from Sigma-Aldrich Chemicals. All pipetting protocols in the assay were performed by the Biotek Precision robotic system (BioTek Instruments, Inc., Winooski, VT, USA). To prevent the effect of light MAO enzymes, the assay was performed in 96-well black plates. […] The enzyme stock solutions were further diluted with an assay buffer to obtain final concentrations of 0.006 mg/mL MAO-A and 0.015 mg/mL MAO-B. Kynuramine was dissolved in sterilized distilled water to obtain a 25 mM stock solution and then diluted with the assay buffer to obtain final concentrations of 40 μM for the MAO-A enzyme and 20 μM for the MAO-B enzyme. […] The addition of the diluted compounds was followed by the addition of either the MAO-A or MAO-B enzymes (50 μL/well). […] Fluorescence was read from top by using BioTek-Synergy H1 multimode microplate reader at the excitation/emission wavelengths of 310 and 380 nm.
(§1) The IC50 values (Table 2) were calculated from the plots of enzyme activity against concentrations, and the regression analyses were computed in GraphPad Prism Version 6 (GraphPad Software, Inc., La Jolla, CA, USA).

The target of the next data set is T2, human recombinant MAO-B (Homo sapiens, UniProt P27338).
T2 construct: purchased Sigma-Aldrich
T2 sequence (P27338 1-520): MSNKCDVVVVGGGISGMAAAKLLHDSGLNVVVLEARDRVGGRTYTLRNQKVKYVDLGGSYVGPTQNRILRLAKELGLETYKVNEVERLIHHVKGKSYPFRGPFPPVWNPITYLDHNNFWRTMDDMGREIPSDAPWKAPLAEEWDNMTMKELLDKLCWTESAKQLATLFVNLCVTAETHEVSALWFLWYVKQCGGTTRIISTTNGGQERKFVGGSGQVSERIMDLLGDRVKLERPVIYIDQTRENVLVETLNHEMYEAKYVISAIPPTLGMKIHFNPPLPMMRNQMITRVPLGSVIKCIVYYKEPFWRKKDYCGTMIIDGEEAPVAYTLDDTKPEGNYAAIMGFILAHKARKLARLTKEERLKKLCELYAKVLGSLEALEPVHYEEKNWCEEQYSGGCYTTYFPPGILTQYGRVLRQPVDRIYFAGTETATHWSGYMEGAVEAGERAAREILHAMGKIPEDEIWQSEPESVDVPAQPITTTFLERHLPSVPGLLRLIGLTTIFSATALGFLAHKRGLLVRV
The data set can be described thus: MAO activity assay (fluorometric, kynuramine substrate), MAO-B. In kind it is biochemical. On the procedure:
The enzyme activity assay was performed in accordance with the procedure reported by Matsumoto et al. with slight modifications. All materials used in the enzymatic assays were purchased from Sigma-Aldrich Chemicals. All pipetting protocols in the assay were performed by the Biotek Precision robotic system (BioTek Instruments, Inc., Winooski, VT, USA). To prevent the effect of light MAO enzymes, the assay was performed in 96-well black plates. Phosphate buffer (0.1 M, pH = 7.4) was used for the preparation of 5 mg/mL stock solutions of the human recombinant MAO-A and MAO-B enzymes. The enzyme stock solutions were further diluted with an assay buffer to obtain final concentrations of 0.006 mg/mL MAO-A and 0.015 mg/mL MAO-B. Kynuramine was dissolved in sterilized distilled water to obtain a 25 mM stock solution and then diluted with the assay buffer to obtain final concentrations of 40 μM for the MAO-A enzyme and 20 μM for the MAO-B enzyme. […] The addition of the diluted compounds was followed by the addition of either the MAO-A or MAO-B enzymes (50 μL/well). […] Fluorescence was read from top by using BioTek-Synergy H1 multimode microplate reader at the excitation/emission wavelengths of 310 and 380 nm.
as §1

Data set [4] deals with NIH/3T3 mouse embryonic fibroblast cells.
Experimental: as §2

For orientation: IC50 means the concentration that gives 50% inhibition. Usually melting point stands for the temperature of the solid-liquid transition. A word on the inhibition: it is the drop in the measured response relative to a control, in per cent. Molecule `CCOc1ccc([N+](=O)[O-])c(NN=Cc2ccc(O)cc2)n1` [Compound 2j, 4-[(2-(6-Ethoxy-3-nitropyridin-2-yl)hydrazono)methyl]phenol] gave a melting point of 158 °C. On MAO-A enzyme [1] (MAO-A, kynuramine substrate, nonlinear regression), the Vmax is 1.903 nmol/min/mg protein. For the same molecule, the “Nature of MAO-A inhibition (Lineweaver–Burk plots)” value at MAO-A enzyme [1] (compound at IC50 concentration, kynuramine 40-1.25 μM) is “mixed type inhibitor”. In data set [2], the IC50 is over 1000 µM. For the same molecule, the IC50 on MAO-A enzyme [3] was found to be 6.25 µM. For the same molecule, the inhibition at 1000 µM on MAO-A enzyme [3] (10^−3 M, ± S.D.) came to 75.7 ± 1.85%. Further, the inhibition at 100 µM at MAO-A enzyme [3] (10^−4 M, ± S.D.) worked out at 69.8 ± 1.43%. Also, the inhibition at 10 µM on MAO-A enzyme [3] (10^−5 M) was found to be 56.1 ± 1.27%. The inhibition at 1 µM at MAO-A enzyme [3] (10^−6 M) came to 43.2 ± 1.06%. Also, the inhibition at 0.1 µM on MAO-A enzyme [3] (10^−7 M) was found to be 38.8 ± 1.07%. On MAO-A enzyme [3] (10^−8 M), the inhibition at 0.01 µM was determined as 32.7 ± 0.82%. For the same molecule, at MAO-A enzyme [3] (10^−9 M), the inhibition at 0.001 µM amounted to 26.7 ± 0.96%. Further, at human recombinant MAO-B, the IC50 was determined as 9.3 µM. Further, the inhibition at 1000 µM on human recombinant MAO-B (10^−3 M, ± S.D.) worked out at 63.8 ± 1.28%. In addition, the inhibition at 100 µM on human recombinant MAO-B (10^−4 M, ± S.D.) turned out to be 52.7 ± 1.29%. At human recombinant MAO-B (10^−5 M), the inhibition at 10 µM was 40.2 ± 1.12%. On human recombinant MAO-B (10^−6 M), the inhibition at 1 µM worked out at 31.6 ± 1.08%. Moreover, the inhibition at 0.1 µM at human recombinant MAO-B (10^−7 M) came out at 25 ± 0.95%. Also, the inhibition at 0.01 µM on human recombinant MAO-B (10^−8 M) stood at 21.9 ± 0.82%. On human recombinant MAO-B (10^−9 M), the inhibition at 0.001 µM was 12.5 ± 0.51%.

Consider `CCOc1ccc([N+](=O)[O-])c(NN=Cc2ccccn2)n1` [Compound 2n, 6-Ethoxy-3-nitro-2[(2-(pyridine-2-yl)methylene)hydrazinyl]pyridine], for which the IC50 in data set [4] is over 1000 µM; at MAO-A enzyme [3], 9.52 µM. Moreover, the “MAO-A Inhibition %” value is listed as 72.07 ± 1.56% at MAO-A enzyme [3] (10^−3 M, ± S.D.); 56.90 ± 1.50% at MAO-A enzyme [3] (10^−4 M, ± S.D.); 42.13 ± 1.22% at MAO-A enzyme [3] (10^−5 M); 35.11 ± 1.18% on MAO-A enzyme [3] (10^−6 M); 24.96 ± 0.83% at MAO-A enzyme [3] (10^−7 M); 18.02 ± 0.77% on MAO-A enzyme [3] (10^−8 M). In addition, the “MAO-A Inhibition %” value on MAO-A enzyme [3] (10^−9 M) is 10.40 ± 0.29%. For the same molecule, at human recombinant MAO-B (10^−3 M, ± S.D.), the “MAO-B Inhibition %” value is 42.00 ± 1.21%.

The values above are taken from article PMC6017090, “Design, Synthesis and Biological Evaluation of Novel N-Pyridyl-Hydrazone Derivatives as Potential Monoamine Oxidase (MAO) Inhibitors” (Molecules : A Journal of Synthetic Chemistry and Natural …, 2018).
